From patent publication US20060281700A1, “SYNERGISTIC MODULATION OF FLT3 KINASE USING AMINOPYRIMIDINES KINASE MODULATORS” (priority 2005, published 2006)
pIC50: −log10 of the molar value.

What was measured:
MV4-11 cells = assay: Inhibition of MV4-11 cell proliferation (CellTiterGlo, 72 hours); assay type: cell-based; conditions: Homo sapiens; 72 hours growth; uncertainty ±20%
Procedure: Inhibition Of MV4-11 and Baf3 Cell Proliferation
To assess the cellular potency of the FLT3 inhibitors of Formula I′, FLT3 specific growth inhibition was measured in the leukemic cell line MV4-11 (ATCC Number: CRL-9591). […] MV4-11 cells cannot grow and survive without active FLT3ITD.
To measure proliferation inhibition by test compounds, the luciferase based CellTiterGlo reagent (Promega), which quantifies total cell number based on total cellular ATP concentration, was used. Cells are plated at 10,000 cells per well in 100 ul of in RPMI media containing penn/strep, 10% FBS and 1 ng/ml GM-CSF or 1 ng/ml IL-3 for MV4-11 and Baf3 cells respectively.
Compound dilutions or 0.1% DMSO (vehicle control) are added to cells and the cells are allowed to grow for 72 hours at standard cell growth conditions (37° C., 5% CO2). For activity measurements in MV4-11 cells grown in 50% plasma, cells were plated at 10,000 cells per well in a 1:1 mixture of growth media and human plasma (final volume of 100 μL). To measure total cell growth an equal volume of CellTiterGlo reagent was added to each well, according to the manufacturer's instructions, and luminescence was quantified. Total cell growth was quantified as the difference in luminescent counts (relative light units, RLU) of cell number at Day 0 compared to total cell number at Day 3 (72 hours of growth and/or compound treatment). One hundred percent inhibition of growth is defined as an RLU equivalent to the Day 0 reading. Zero percent inhibition was defined as the RLU signal for the DMSO vehicle control at Day 3 of growth. All data points are an average of triplicate samples. […] Inhibition and IC50 data analysis was done with GraphPad Prism using a non-linear regression fit with a multiparamater, sigmoidal dose-response (variable slope) equation.
MV4-11 cells express the FLT3 internal tandem duplication mutation, and thus are entirely dependent upon FLT3 activity for growth. […] In contrast, the Baf3 cell proliferation is driven by the cytokine IL-3 and thus are used as a non-specific toxicity control for test compounds.

[1] = molecular target: T1, isolated kinase domain of the human FLT3 receptor (a.a. 571-993) (Homo sapiens, UniProt P36888); assay: FLT3 Fluorescence Polarization Kinase Assay; assay type: biochemical; conditions: 10 nM FLT3 571-993, 150 uM ATP; uncertainty ±10%
T1 construct: isolated kinase domain of the human FLT3 receptor (a.a. 571-993)
T1 sequence (P36888 571-993): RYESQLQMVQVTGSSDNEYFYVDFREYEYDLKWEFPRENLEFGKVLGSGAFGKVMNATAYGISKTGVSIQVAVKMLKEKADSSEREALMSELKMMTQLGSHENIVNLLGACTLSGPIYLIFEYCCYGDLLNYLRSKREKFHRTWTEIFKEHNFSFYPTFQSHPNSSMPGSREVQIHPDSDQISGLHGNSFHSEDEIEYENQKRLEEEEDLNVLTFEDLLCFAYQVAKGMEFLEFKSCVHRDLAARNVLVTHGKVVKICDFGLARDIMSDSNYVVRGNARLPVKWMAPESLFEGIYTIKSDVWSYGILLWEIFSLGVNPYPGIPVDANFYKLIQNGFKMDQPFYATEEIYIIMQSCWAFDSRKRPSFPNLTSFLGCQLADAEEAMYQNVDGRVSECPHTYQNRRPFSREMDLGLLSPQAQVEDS
Procedure: FLT3 Fluorescence Polarization Kinase Assay
To determine the activity of the FLT3 inhibitors of Formula I′ in an in vitro kinase assay, inhibition of the isolated kinase domain of the human FLT3 receptor (a.a. 571-993) was performed using the following fluorescence polarization (FP) protocol. The FLT3 FP assay utilizes the fluorescein-labeled phosphopeptide and the anti-phosphotyrosine antibody included in the Panvera Phospho-Tyrosine Kinase Kit (Green) supplied by Invitrogen. When FLT3 phosphorylates polyGlu4Tyr, the fluorescein-labeled phosphopeptide is displaced from the anti-phosphotyrosine antibody by the phosphorylated poly Glu4Tyr, thus decreasing the FP value. The FLT3 kinase reaction is incubated at room temperature for 30 minutes under the following conditions: 10 nM FLT3 571-993, 20 ug/mL poly Glu4Tyr, 150 uM ATP, 5 mM MgCl2, 1% compound in DMSO. The kinase reaction is stopped with the addition of EDTA. The fluorescein-labeled phosphopeptide and the anti-phosphotyrosine antibody are added and incubated for 30 minutes at room temperature.
All data points are an average of triplicate samples. Inhibition and IC50 data analysis was done with GraphPad Prism using a non-linear regression fit with a multiparamater, sigmoidal dose-response (variable slope) equation.

## CC(C)Oc1ccc(NC(=O)OC2CCN(c3ncnc(N)c3/C=N/OCCN3CCOCC3)CC2)cc1 [Number 3, (4-Isopropoxy-phenyl)-carbamic acid 1-{6-amino-5-[(2-morpholin-4-yl-ethoxyimino)-methyl]-pyrimidin-4-yl}-piperidin-4-yl ester]
MV4-11 cells
  pIC50: 5.55
[1]
  pIC50: 6.09

## CO/N=C/c1c(N)ncnc1N1CCC(NC(=O)Cc2ccc(C(C)C)cc2)CC1 [Number 16, N-{1-[6-Amino-5-(methoxyimino-methyl)-pyrimidin-4-yl]-piperidin-4-yl}-2-(4-isopropyl-phenyl)-acetamide]
MV4-11 cells
  pIC50: 5.85
[1]
  pIC50: 5.74

## CO/N=C/c1c(N)ncnc1N1CCC(NC(=O)Nc2ccc(N3CCCC3)cc2)CC1 [Number 24, 1-{1-[6-Amino-5-(methoxyimino-methyl)-pyrimidin-4-yl]-piperidin-4-yl}-3-(4-pyrrolidin-1-yl-phenyl)-urea]
MV4-11 cells
  pIC50: 5.96
[1]
  pIC50: 6.70

## CC(C)c1ccc(NC(=O)NC2CCN(c3ncnc(N)c3/C=N/OCCN)C2)cc1 (stereo not shown) [Number 27, 1-(1-{6-Amino-5-[(2-amino-ethoxyimino)-methyl]-pyrimidin-4-yl}-pyrrolidin-3-yl)-3-(4-isopropyl-phenyl)-urea]
MV4-11 cells
  pIC50: 5.77
[1]
  pIC50: < 5.00

## CO/N=C/c1c(N)ncnc1N1CCC(NC(=O)Nc2ccc(C(C)C)cc2)C1 (stereo not shown) [Number 30, 1-{1-[6-Amino-5-(methoxyimino-methyl)-pyrimidin-4-yl]-pyrrolidin-3-yl}-3-(4-isopropyl-phenyl)-urea]
MV4-11 cells
  pIC50: 6.68
[1]
  pIC50: 5.33
